One test relates to wild-type C57BL/6J mice. The experiment in a line: Steroid-induced (dexamethasone) ocular hypertension model, topical treatment. The class given is in vivo, mouse. An excerpt:
All studies were approved by the Mayo Clinic (Rochester, MN) IACUC and adhered to ARVO guidelines. […] In the final phase of the experiment (experimental weeks 7-9, treatment weeks 4-6), dexamethasone-injected animals in Group 2 continued to receive topical STC-1 while treatment was halted in the vehicle-injected fellow eye for a medication wash-out period (FIG. 22). For statistical purposes, the final week of each condition was selected (i.e. weeks 3, 6, and 9) for analysis. To determine if a difference in IOP was present among groups at week 6 and 9, a Kruskal-Wallis test was performed. An unpaired t-test was used to directly compare the two groups. Values for all statistical tests were considered significant at P<0.05.
For both models histologic analysis was performed.

Test [1] has as its system mouse model of experimental autoimmune uveitis. The experiment in a line: Experimental autoimmune uveitis (EAU), topical treatment. The format is in vivo. The note with it: daily topical. As to the method: Following induction of experimental autoimmune uveitis (EAU), mice were treated daily with topical latanoprost free acid (LFA; 100 μM) or STC-1 (0.5 μg/mL) in one eye and vehicle in the other eye. At day 18, OCT was performed and retinal thickness was measured in a masked manner. At day 21, eyes were enucleated and processed for hematoxylin and eosin (H&E) staining.
Experimental autoimmune uveitis (EAU) was induced in the C57B/6 mouse with a protocol described elsewhere (see, e.g., Avichezer et al., Invest. Ophthalmol. Vis. Sci., 41(1):127-31 (2004)). Briefly, human interphotoreceptor retinoid binding protein (IRBP) in complete Freund's adjuvant was injected subcutaneously and pertussis toxin was injected intraperitoneally as an additional immune stimulus.

The next test deals with C57BL/6J mice. The experiment in a line: Aqueous outflow parameters by constant flow infusion. The class given is in vivo, mouse. The note with it: 6 weeks post intracameral injection, treatment day 5 for topical. An excerpt: To determine the effects of ssAAV2-smCBA-STC-1-FLAG on parameters of aqueous outflow, 3-month old C57BL/6J mice were separately treated with the following: 1) intracameral ssAAV2-smCB A-STC-1-FLAG (n=5), 2) intracameral ssAAV2-smCBA-GFP (n=5), 3) topical recombinant human STC-1 (n=4; Biovender Research and Diagnostic Products, Czech Republic) (Roddy et al., Invest Ophthalmol Vis Sci. 58:2715-24(2017); Roddy et al., PLoS ONE. 15(2020)), 4) topical latanoprost free acid (LFA; n=5; Cayman Chemical, Ann Arbor, MI), or 5) untreated mice (n=4). Mice that received topical treatments were treated with once daily topical doses of STC-1 (5 μl of 0.5 μg/μl) or LFA (10^-4 M) for 5 days prior to aqueous outflow experiments. Mice that received intracameral injections were treated 6 weeks prior to aqueous outflow measurements. Aqueous outflow was assessed using the protocols previously established (Millar et al., Invest Ophthalmol Vis Sci. 52:685-94(2011); Roy Chowdhury et al., Invest Ophthalmol Vis Sci. 58:5731-42(2017)). Briefly, a 33-g needle was used to cannulate the anterior chamber of anesthetized mice. The needle was connected to a flow-through pressure transducer (World Precision Instruments, Sarasota, FL) that was also connected to an SP101i microdialysis infusion pump (World Precision Instruments) and an open-ended, variable-height, raised reservoir manometer. Episcleral venous pressure was obtained by visualizing the reflux of blood into Schlemm's canal by direct ophthalmoscopy as the reservoir was lowered. Outflow facility was determined by slowly increasing the flow rate with the infusion pump and recording the pressure. Uveoscleral outflow was calculated when the inflow is presumed to be zero immediately after animal sacrifice. Aqueous humor formation was then estimated by using the modified Goldmann equation, i.e. aqueous formation rate=[outflow facility X (IOP−episcleral venous pressure)]+uveoscleral outflow as previously described (Millar et al., Invest Ophthalmol Vis Sci. 52:685-94(2011)). To validate the calculated IOP values based on the Goldman equation, IOP was also assessed with a handheld rebound tonometer. All data were recorded and analyzed using LabScribe software (World Precision Instruments).

For test [2] the following is noted: one eye, IOP 33 mmHg at 12 months after plaque.
Text: Records were reviewed for patient demographics, clinical tumor features, treatment parameters, and outcomes, with attention to IOP and optic disc features.

Regarding `CC(=O)OCC(=O)[C@@]1(O)[C@H](C)C[C@H]2[C@@H]3CCC4=CC(=O)C=C[C@]4(C)[C@@]3(F)[C@@H](O)C[C@@]21C` [dexamethasone, dexamethasone acetate], the IOP is reported as 19.5±1.7 mmHg in the test on wild-type C57BL/6J mice (PBS-treated dexamethasone-injected eyes, week 6, n=8); 19.7±1.3 mmHg in the test on wild-type C57BL/6J mice (PBS-treated dexamethasone-injected eyes, week 9, n=8); 19.7±1.8 mmHg with wild-type C57BL/6J mice (dexamethasone-injected eyes, week 3, n=18). In the test on wild-type C57BL/6J mice (after 3 weekly conjunctival fornix injections, n=18), the “Increase in IOP vs vehicle-injected eyes” value was 18%. For the same molecule, the “IOP change vs PBS-treated vehicle-injected eyes” value with wild-type C57BL/6J mice (week 6, n=8) was determined as 25%.
In the case of `O=C(O)CCC/C=C\C[C@@H]1[C@@H](CC[C@@H](O)CCc2ccccc2)[C@H](O)C[C@@H]1O` [LFA, latanoprost free acid], in test [1] (day 18), the “Retinal thickness by OCT vs vehicle control eye” value was “no significant difference in retinal thickness”. Further, the “Vitreous inflammatory cells (H&E)” value in test [1] (day 21) is listed as “trend toward greater vitreous cell”. In the test on C57BL/6J mice, this molecule yielded an Episcleral venous pressure of 10.0 ± 2.4 mmHg, an Outflow facility of 0.046 ± 0.02 μL/min/mmHg and a Uveoscleral outflow of 0.046 ± 0.02 µL/min. In the test on C57BL/6J mice (Goldmann equation), the “Calculated IOP” value is 14.0 ± 1.9 mmHg. In the test with C57BL/6J mice (rebound tonometer), the “Measured IOP” value was 13.2 ± 0.9 mmHg.
As to “dorzolamide hydrochloride-timolol maleate”, the “Response of IOP spike to topical therapy” value in test [2] was “responded”.
